From article PMC2751816, “Functional, Non-Clonal IgM^a-Restricted B Cell Receptor Interactions with the HIV-1 Envelope gp41 Membrane Proximal External Region” (PLoS ONE, 2009)

System: BALB/c splenic B cells
Assay: Alanine-substituted gp41 MPER mutant tetramers: binding to BALB/c splenic B cells (flow cytometry)
Format: cell-based, mouse (BALB/c)
Conditions: APC mutant tetramers 100 ng/10^6 cells, MFI; average of two experiments; Fig. 7B middle
Description: Figure 7 Mapping of gp41 MPER residues required for high frequency interactions with IgM^a. A) List of peptides (annotated numerically according to position of substitution) used to make mutant tetramers with sequential alanine substitutions (in red) along the gp41 MPER region containing the nominal 2F5 epitope. B) Comparison of gp41 MPER residues required for binding bnAb 2F5 with those required for allotypic interactions with IgM. Shown is relative binding of mutant tetramers with either 2F5 (upper panel), naïve BALB/c total splenic B cells (middle panel), and 9G8 (lower panel). Tetramers with corresponding substituted positions in the 2F5 epitope are indicated on the x-axis, with those in blue and red representing mutated residues with >3 and >10 fold binding reductions, respectively. For measuring mutant tetramer binding to 2F5, unlabeled versions of tetramers were used in SPR analysis, as described in Materials and Methods. […]
N-biotinylated, linker/spacer-containing peptides used to make tetramers are detailed in Table S4 and Fig. 7A. […] Purified tetramer preparations were determined using the Micro BSA protein assay kit (Pierce Biotechnology).
FACS staining of single cell suspensions (≥2×10^6) was conducted using pre-mixed combinations of fluorochrome-labeled Abs and APC-conjugated B cell tetramers at empirically-determined optimal concentrations. […]

Sequence: QQEKNEQELLELDKWASLWN [gp41 MPER tetramer, (residues 659–678 of the HIV-1 envelope)]
- gp41 MPER residues required for binding (in words): mapped to 660Q and a 677 W, both located outside the core 2F5 epitope
